assay: in vitro; conditions: human, hek293t cells

Question: For `CC(Cl)C(=O)N1Cc2ccccc2C(n2cccn2)C1` (stereo not drawn) [6-F20, 2-chloro-1-[4-(1H-pyrazol-1-yl)-1,2,3,4-tetrahydroisoquinolin-2-yl]propan-1-one], which viability at 48 h, 25 µM is on record?
Answer: 103%

Question: With `O=C(CCl)Nc1ccc(F)cc1[N+](=O)[O-]` [4-I07, 2-chloro-N-(4-fluoro-2-nitrophenyl)acetamide] as the compound, how does the viability at 48 h, 25 µM read?
Answer: 0.642%

Question: With `COc1ccc(S(=O)(=O)N(C)C)cc1NC(=O)CCl` [4-E05, 2-chloro-N-[5-(dimethylsulfamoyl)-2-methoxyphenyl]acetamide] as the compound, how does the viability at 48 h, 25 µM read?
Answer: 0.891%

Question: With `CC(Cl)C(=O)NCc1ncnn1C(C)C` (stereo not drawn) [5-P15, 2-chloro-N-{[1-(propan-2-yl)-1H-1,2,4-triazol-5-yl]methyl}propanamide] as the compound, how does the viability at 48 h, 25 µM read?
Answer: 125%

Question: For `O=C(CCl)NC(c1ccccc1)C1CC1` (stereo not drawn) [5-L16, 2-chloro-N-[cyclopropyl(phenyl)methyl]acetamide], which viability at 48 h, 25 µM is on record?
Answer: 116%

Question: With `CC(NC(=O)C(C#N)=Cc1ccc2c(c1)OCCO2)c1ccccc1` (stereo not drawn) [8-M15, 2-cyano-3-(2,3-dihydro-1,4-benzodioxin-6-yl)-N-(1-phenylethyl)prop-2-enamide] as the compound, how does the viability at 48 h, 25 µM read?
Answer: 64.3%

Question: With `CC(Cl)C(=O)NC1Cc2ccccc2N(C(=O)C(F)(F)F)C1` (stereo not drawn) [7-N19, 2-chloro-N-[1-(2,2,2-trifluoroacetyl)-1,2,3,4-tetrahydroquinolin-3-yl]propanamide] as the compound, how does the viability at 48 h, 25 µM read?
Answer: 87.1%

Question: With `Cc1ccc(C=C(C#N)C(=O)Nc2ccc(C(=O)N(C)C)cc2)o1` [9-P14, 4-[2-cyano-3-(5-methylfuran-2-yl)prop-2-enamido]-N,N-dimethylbenzamide] as the compound, how does the viability at 48 h, 25 µM read?
Answer: 119%

Question: Which viability at 48 h, 25 µM does the source give for `O=C(CCl)NC1CCSc2ccc(F)cc21` (stereo not drawn) [5-M09, 2-chloro-N-(6-fluoro-3,4-dihydro-2H-1-benzothiopyran-4-yl)acetamide] here?
Answer: 0.504%

Question: For `C=CC(=O)NCCc1nnc(C)s1` [3-G22, N-[2-(5-methyl-1,3,4-thiadiazol-2-yl)ethyl]prop-2-enamide], which viability at 48 h, 25 µM is on record?
Answer: 78.3%

Question: Which viability at 48 h, 25 µM does the source give for `COCCNC(=O)C(C#N)=Cc1c(F)cccc1Cl` [8-O21, 3-(2-chloro-6-fluorophenyl)-2-cyano-N-(2-methoxyethyl)prop-2-enamide] here?
Answer: 94.2%

Question: Which viability at 48 h, 25 µM does the source give for `C=CC(=O)NC1COC(C)C1` (stereo not drawn) [1-H17, N-(5-methyloxolan-3-yl)prop-2-enamide] here?
Answer: 106%

Question: With `CC(O)=C(C#N)C(=O)Nc1ccc(C(F)(F)F)cc1` [9-A05, 2-cyano-3-hydroxy-N-[4-(trifluoromethyl)phenyl]but-2-enamide] as the compound, how does the viability at 48 h, 25 µM read?
Answer: 90.6%

Question: With `C=CCN(Cc1cccs1)C(=O)CCl` [5-B06, 2-chloro-N-(prop-2-en-1-yl)-N-[(thiophen-2-yl)methyl]acetamide] as the compound, how does the viability at 48 h, 25 µM read?
Answer: 0.0461%

Question: For `C=CC(=O)NCCS(=O)(=O)N1CCOCC1` [2-E14, N-[2-(morpholine-4-sulfonyl)ethyl]prop-2-enamide], which viability at 48 h, 25 µM is on record?
Answer: 94.6%

Question: With `C=CC(=O)N1CCCc2cccc(F)c21` [1-L19, 1-(8-fluoro-1,2,3,4-tetrahydroquinolin-1-yl)prop-2-en-1-one] as the compound, how does the viability at 48 h, 25 µM read?
Answer: 112%

Question: Which viability at 48 h, 25 µM does the source give for `C=CC(=O)NC[C@@H]1C[C@H](F)CN1Cc1csc(C)n1` [2-I09, N-{[(2S,4S)-4-fluoro-1-[(2-methyl-1,3-thiazol-4-yl)methyl]pyrrolidin-2-yl]methyl}prop-2-enamide] here?
Answer: 192%

Question: For `C=CC(=O)Nc1cccc2ccccc12` [1-G10, N-(naphthalen-1-yl)prop-2-enamide], which viability at 48 h, 25 µM is on record?
Answer: 53.4%

Question: With `C=CC(=O)N(C)C[C@@H]1CCC(=O)N1` [3-A22, N-methyl-N-{[(2S)-5-oxopyrrolidin-2-yl]methyl}prop-2-enamide] as the compound, how does the viability at 48 h, 25 µM read?
Answer: 150%

Question: Which viability at 48 h, 25 µM does the source give for `C=CC(=O)N(c1cc(C)ccc1C#N)C(C)C` [2-A22, N-(2-cyano-5-methylphenyl)-N-(propan-2-yl)prop-2-enamide] here?
Answer: 111%

Question: Which viability at 48 h, 25 µM does the source give for `C=CC(=O)NCCc1ccnn1C` [2-O17, N-[2-(1-methyl-1H-pyrazol-5-yl)ethyl]prop-2-enamide] here?
Answer: 178%

Question: For `CC(Cl)C(=O)NCc1cc(C(F)(F)F)cs1` (stereo not drawn) [7-J19, 2-chloro-N-{[4-(trifluoromethyl)thiophen-2-yl]methyl}propanamide], which viability at 48 h, 25 µM is on record?
Answer: 97.1%

Question: For `O=C(CCl)N(Cc1ccc(Cl)cc1)C12CC3CC(CC(C3)C1)C2` [4-H07, N-(adamantan-1-yl)-2-chloro-N-[(4-chlorophenyl)methyl]acetamide], which viability at 48 h, 25 µM is on record?
Answer: -0.34%

Question: With `CC(Cl)C(=O)N1CCCCC1c1cnn(C)c1` (stereo not drawn) [7-A03, 2-chloro-1-[2-(1-methyl-1H-pyrazol-4-yl)piperidin-1-yl]propan-1-one] as the compound, how does the viability at 48 h, 25 µM read?
Answer: 98.8%

Question: With `C=CC(=O)NCc1ccc(C(=O)N2CCC[C@H]2C(=O)NC)cc1` [3-L06, (2S)-N-methyl-1-{4-[(prop-2-enamido)methyl]benzoyl}pyrrolidine-2-carboxamide] as the compound, how does the viability at 48 h, 25 µM read?
Answer: 80.6%

Question: Which viability at 48 h, 25 µM does the source give for `Cc1cc(C(=O)CCl)c(C)n1-c1ccc2c(c1)OCO2` [10-K14, 1-[1-(1,3-dioxaindan-5-yl)-2,5-dimethyl-1H-pyrrol-3-yl]-2-chloroethan-1-one] here?
Answer: 22.4%

Question: For `COc1cccc(NC(=O)C(C#N)=Cc2ccc([N+](=O)[O-])o2)c1` [8-A19, 2-cyano-N-(3-methoxyphenyl)-3-(5-nitrofuran-2-yl)prop-2-enamide], which viability at 48 h, 25 µM is on record?
Answer: 72.4%

Question: For `CC(Cl)C(=O)N1CCCc2c1ccc1c2ncn1C` (stereo not drawn) [6-B19, 2-chloro-1-{3-methyl-3H,6H,7H,8H,9H-imidazo[4,5-f]quinolin-6-yl}propan-1-one], which viability at 48 h, 25 µM is on record?
Answer: 90.9%

Question: With `COCC(NC(=O)C(C)Cl)c1cccc(C#N)c1` (stereo not drawn) [6-L19, 2-chloro-N-[1-(3-cyanophenyl)-2-methoxyethyl]propanamide] as the compound, how does the viability at 48 h, 25 µM read?
Answer: 107%

Question: Which viability at 48 h, 25 µM does the source give for `O=C(CCl)N1N=C(c2ccccc2)CC1c1ccc2nccnc2c1` (stereo not drawn) [4-A22, 2-chloro-1-[3-phenyl-5-(quinoxalin-6-yl)-4,5-dihydro-1H-pyrazol-1-yl]ethan-1-one] here?
Answer: 0.127%

Question: Which viability at 48 h, 25 µM does the source give for `COc1ccc(CC2CCN2C(=O)C(C)Cl)cc1` (stereo not drawn) [5-O22, 2-chloro-1-{2-[(4-methoxyphenyl)methyl]azetidin-1-yl}propan-1-one] here?
Answer: 88.3%

Question: With `CC(C)NC(=O)C(C#N)=Cc1ccc(-c2ccccc2F)o1` [8-K18, 2-cyano-3-[5-(2-fluorophenyl)furan-2-yl]-N-(propan-2-yl)prop-2-enamide] as the compound, how does the viability at 48 h, 25 µM read?
Answer: 16%

Question: With `CCN(C(=O)CCl)C1CCCCC1` [5-D11, 2-chloro-N-cyclohexyl-N-ethylacetamide] as the compound, how does the viability at 48 h, 25 µM read?
Answer: 0.918%

Question: Which viability at 48 h, 25 µM does the source give for `COc1ccc(-c2csc(NC(=O)CCl)n2)c(O)c1` [4-A11, 2-chloro-N-[4-(2-hydroxy-4-methoxyphenyl)-1,3-thiazol-2-yl]acetamide] here?
Answer: -0.257%

Question: With `C=CC(=O)N1CCC(n2cnc3ccccc3c2=O)C1` (stereo not drawn) [3-C03, 3-[1-(prop-2-enoyl)pyrrolidin-3-yl]-3,4-dihydroquinazolin-4-one] as the compound, how does the viability at 48 h, 25 µM read?
Answer: 63.6%

Question: For `CC(=O)Nc1ccc(NC(=O)N2CCSSCC2)cc1` [10-J11, N-(4-acetamidophenyl)-1,2,5-dithiazepane-5-carboxamide], which viability at 48 h, 25 µM is on record?
Answer: 120%

Question: With `C=CC(=O)NCCC(=O)N1CCc2cc(C)c([N+](=O)[O-])cc21` [3-F08, N-[3-(5-methyl-6-nitro-2,3-dihydro-1H-indol-1-yl)-3-oxopropyl]prop-2-enamide] as the compound, how does the viability at 48 h, 25 µM read?
Answer: 82.7%

Question: For `O=C(CCl)NCc1ccc(C(=O)N2CCCC2)cc1` [6-G04, 2-chloro-N-{[4-(pyrrolidine-1-carbonyl)phenyl]methyl}acetamide], which viability at 48 h, 25 µM is on record?
Answer: 107%

Question: With `CC(Cc1ccc(Cl)s1)NC(=O)CCl` (stereo not drawn) [5-N11, 2-chloro-N-[1-(5-chlorothiophen-2-yl)propan-2-yl]acetamide] as the compound, how does the viability at 48 h, 25 µM read?
Answer: 0.992%

Question: For `CC(Cl)C(=O)NCCC1(C)OCCO1` (stereo not drawn) [7-E17, 2-chloro-N-[2-(2-methyl-1,3-dioxolan-2-yl)ethyl]propanamide], which viability at 48 h, 25 µM is on record?
Answer: 82.4%

Question: For `C=CC(=O)Nc1cccc(OC(C)(C)C)c1` [3-G14, N-[3-(tert-butoxy)phenyl]prop-2-enamide], which viability at 48 h, 25 µM is on record?
Answer: 85.8%

Question: With `CSc1cccc(NC(=O)CCl)c1` [4-H10, 2-chloro-N-[3-(methylsulfanyl)phenyl]acetamide] as the compound, how does the viability at 48 h, 25 µM read?
Answer: 1.13%

Question: For `COCc1nnc([C@]23CC[C@H]2CCN3C(=O)C(C)Cl)o1` (mixture of isomers) [5-H15, rac-2-chloro-1-[(1R,5R)-1-[5-(methoxymethyl)-1,3,4-oxadiazol-2-yl]-2-azabicyclo[3.2.0]heptan-2-yl]propan-1-one], which viability at 48 h, 25 µM is on record?
Answer: 108%

Question: For `Cc1ccc(Sc2ccc(NC(=O)CCl)cc2)cc1C` [4-G03, 2-chloro-N-{4-[(3,4-dimethylphenyl)sulfanyl]phenyl}acetamide], which viability at 48 h, 25 µM is on record?
Answer: -0.101%

Question: For `CCC(=O)NC1CCN(C(=O)CCl)C1` (stereo not drawn) [5-G04, N-[1-(2-chloroacetyl)pyrrolidin-3-yl]propanamide], which viability at 48 h, 25 µM is on record?
Answer: 10.3%

Question: With `CC(C)c1ccccc1NC(=O)CCl` [4-F06, 2-chloro-N-[2-(propan-2-yl)phenyl]acetamide] as the compound, how does the viability at 48 h, 25 µM read?
Answer: 1.92%

Question: Which viability at 48 h, 25 µM does the source give for `C=CC(=O)N1CCOCC1c1ncnn1Cc1ccccc1` (stereo not drawn) [1-L12, 1-[3-(1-benzyl-1H-1,2,4-triazol-5-yl)morpholin-4-yl]prop-2-en-1-one] here?
Answer: 63.7%

Question: Which viability at 48 h, 25 µM does the source give for `N#CC(=Cc1ccc(N2CCCC2)cc1)C(=O)N1CCC(C(N)=O)CC1` [9-K12, 1-(2-cyano-2-{[4-(pyrrolidin-1-yl)phenyl]methylidene}acetyl)piperidine-4-carboxamide] here?
Answer: 108%

Question: For `C=CC(=O)N(C)Cc1cccnc1` [3-L11, N-methyl-N-[(pyridin-3-yl)methyl]prop-2-enamide], which viability at 48 h, 25 µM is on record?
Answer: 82%

Question: For `C=CC(=O)N1CCC(C(=O)Nc2cc(OCC)ccc2Cl)CC1` [1-I20, N-(2-chloro-5-ethoxyphenyl)-1-(prop-2-enoyl)piperidine-4-carboxamide], which viability at 48 h, 25 µM is on record?
Answer: 122%

Question: Which viability at 48 h, 25 µM does the source give for `N#CC(=Cc1ccccc1)C(=O)Nc1nnn[nH]1` [8-J14, 2-cyano-3-phenyl-N-(1H-1,2,3,4-tetrazol-5-yl)prop-2-enamide] here?
Answer: 111%

Question: Which viability at 48 h, 25 µM does the source give for `Cc1cc(C)n(CC2CCN(C(=O)C(C)Cl)CC2)n1` (stereo not drawn) [7-P17, 2-chloro-1-{4-[(3,5-dimethyl-1H-pyrazol-1-yl)methyl]piperidin-1-yl}propan-1-one] here?
Answer: 79.8%

Question: With `CCn1nc(C)c(C(=O)CCl)n1` [10-P08, 2-chloro-1-(2-ethyl-5-methyl-2H-1,2,3-triazol-4-yl)ethan-1-one] as the compound, how does the viability at 48 h, 25 µM read?
Answer: 27.2%

Question: For `O=C(CCl)NC(c1ccc(F)cc1)c1cccs1` (stereo not drawn) [4-K18, 2-chloro-N-[(4-fluorophenyl)(thiophen-2-yl)methyl]acetamide], which viability at 48 h, 25 µM is on record?
Answer: 0.21%

Source: paper PMC11995724, “Antibiotic target discovery by integrated phenotypic and activity-based profiling of electrophilic fragments” (Cell chemical biology, 2025)
